Measured values reported in patent US11273131B2, “Pharmaceutical compositions with enhanced permeation” (AQUESTIVE THERAPEUTICS, INC., priority 2016, dated 2022).
Marks after values point to notes of the source that are not given here.

What was measured:
[1] = Diazepam solubility in excipients; format: physicochemical; conditions: diazepam (API) in the excipient
From the text: Diazepam was applied in the buccal area (cheek) to diffuse through the oral mucosa and enter directly into the bloodstream. Solubility of diazepam was also studied using various excipients.
The following excipients have also been studied to improve solubility.

[2] = Excipient properties (HLB, water solubility); format: physicochemical; conditions: of the excipient
[3] = FIG. 6A, 6B
[4] = Ex vivo permeation of epinephrine, Franz diffusion cell
Procedure: A franz diffusion cell is obtained and prepared.
If testing films, one can perform the following next steps: (1) weigh films, punch to match diffusion area (or smaller), reweigh, record pre- and post-punching weight; (2) wet a donor area with approximately 100 μL of phosphate buffer; (3) place film on a donor surface, top with 400 μL of phosphate buffer, and start timers.
The tissue is dermatomed to precise thickness. • 4. […] The media is selected to ensure sink conditions. • 5.

Structure (SMILES): CCCCCCCC/C=C\CCCCCCCC(=O)OCC(O)CO (stereo not shown) [Glycerol Monooleate]
- API Solubility mg/gm total mix [1]: 71 mg/gm total mix
- HLB [2]: 1

Structure (SMILES): CNC[C@H](O)c1ccc(O)c(O)c1 [epinephrine]
- time after which amount leveled off [3]: about 40 minutes

Structure (SMILES): CC(O)CO (stereo not shown) [Propylene Glycol]
- API Solubility mg/gm total mix [1]: <30 mg/gm total mix

Structure (SMILES): CNC[C@H](O)c1ccc(O)c(O)c1 [Epinephrine Base]
- permeation, base solubilized in situ vs Epinephrine Bitartrate ([4]; 4.4 mg/mL base vs 8.00 mg/mL bitartrate): no differences were found
- Average Steady State Flux ([4]; conc 4.4 mg/mL, solubilized in situ): 0.512 ug/cm2 * min

Structure (SMILES): OCc1ccccc1 [Benzyl Alcohol]
- API Solubility mg/gm total mix [1]: 400 mg/gm total mix

Structure (SMILES): CNC[C@H](O)c1ccc(O)c(O)c1 [Epinephrine Bitartrate]
- permeation as a function of concentration [4]: increasing concentration resulted in increased permeation
- permeation as a function of solution pH [4]: pH 5 was slightly more favorable as compared to pH 3
- average flux ([4]; 30 min, 16 mg/mL): 0 μg/cm2 * min
- average flux ([4]; 45 min, 16 mg/mL): 0.2604 μg/cm2 * min
- average flux ([4]; 60 min, 16 mg/mL): 0.3125 μg/cm2 * min
- average flux ([4]; 120 min, 16 mg/mL): 0.6727 μg/cm2 * min
- average flux ([4]; 180 min, 16 mg/mL): 1.076 μg/cm2 * min
- average flux ([4]; 240 min, 16 mg/mL): 1.029 μg/cm2 * min
- average flux ([4]; 300 min, 16 mg/mL): 1.25 μg/cm2 * min
- Average Steady State Flux ([4]; 360 min, 4 mg/mL): 0.167 ug/cm2 * min
- Average Steady State Flux ([4]; 360 min, 8 mg/mL): 0.466 ug/cm2 * min
- Average Steady State Flux ([4]; 360 min, 16 mg/mL): 1.317 ug/cm2 * min
- average flux ([4]; 360 min, 16 mg/mL): 1.385 μg/cm2 * min
- Average Steady State Flux ([4]; 360 min, 100 mg/mL): 2.942 ug/cm2 * min

Structure (SMILES): CCCCCCCC/C=C\CCCCCCCC(=O)O [Oleic Acid]
- API Solubility mg/gm total mix [1]: <50 mg/gm total mix
